# Experimental data: US20040147595A1, “Biofilm degrading or sloughing compositions and methods” (priority 2001, published 2004)
# pEC50: −log10 of the molar value. Several values for one entry are separate records, joined by “and”; a condition that tells them apart may be missing. Identical values can stand only once. Entries after “also recorded” stand apart in the source; their conditions may differ. Like-named read-outs stand apart in the source and are kept apart here.
# Experiments:
# [1] = tested on: OHHL induced LuxR dependent expression of GFP; test: Quantitative furanone inhibition of the LuxR-PluxI-gfp(ASV) quorum sensor in E. coli MT102 (pJBA89); format: cell-based, Escherichia coli; details: gradient of furanone concentration lowering RFU to 40% versus OHHL concentration (5-100 nM)
# Text: To analyse the AHL antagonist activity of the halogenated furanones we tested the compounds for their ability to inhibit 3oxo-C6-HSL (OHHL) induced LuxR dependent expression of green fluorescent protein (GFP) from a Pgfp(ASV) fusion in the AHL monitor strain E. coli MT102 harbouring pJBA89 (Andersen et al., 2001).
# The medium used is minimal ABT containing 0.5% glucose and 0.5% Casamino Acids. In growing cultures of the AHL monitor strain E. coli Mt102 (pJBA89) encoding […] and a P-gfp(ASV) fusion, GFP(ASV) is produced immediately upon OHHL addition specifically from the LuxR controlled P-gfp(ASV) fusion gene. The sensitivity is high (responsive to as little as 3 nm OHHL) and due to the instability built into the GFP (ASV) variant there is no background production of green fluoroscence (Andersen et al., 2001). GFP expression from the AHL monitor strain E. coli MT102 (pJBA89) and the control strain MT102 harbouring the lacl^q, Plas-gfp(ASV) IPTG inducible expression system pMH197 was quantified in the following way. Overnight cultures were diluted four fold in fresh medium and incubated for one hour at 30° C. while OHHL and furanone compounds in the required concentrations were mixed in the wells of microtiter dishes. […] When absolute values were required, green fluoroscence was measured on a fluorometer (model RF-1501; Shimadzu, Tokyo, Japan) act at an excitation wavelength of 475 nm and emission detection at 515 nm. To establish a correlation between the colour code of the ARGUS-50 captured images and green fluorescence, both colour and relative fluorescence units (RFU), were determined for a dilution series of an E. coli MT102 (pJBA89) culture which had been incubated with […]. […]
# From the second plot, the furanone concentration reducing the relative activity to 40% (ID60) is determined for each OHHL concentration. […]
# To enable easy comparison of the strength of the furanones, an inhibition index (IIX40) is calculated for each furanone compound. […]
# [2] = tested on: las quorum sensing system (lasB-gfp(ASV) Plac-lasR); test: pMHLAS lasB-gfp(ASV) reporter in E. coli MT102; format: cell-based, Escherichia coli; details: for induction of the lasB-gfp(ASV) monitor by AHL compounds: E. coli with pMHLAS, AHLs 0 to 1000 nM
# Protocol: (§1) AHL and furanone bioassay. Strains were grown exponentially in LB or ABt medium supplemented with 0.5% glucose at 30° C., shading at 250 rpm. At an optical density of approximately 0.8. the cultures were diluted and split into subcultures in glass culture flasks. AHLs and furanone 56 were added to appropriate concentrations and the cultures were further incubated at 30° C. under vigorous shaking. Culture samples were retrieved at various time intervals and green fluorescence was measured with a fluorometer (model RF-1501, Shimadzu, Tokyo, Japan) set at an excitation wavelength of 475 nm and emission wavelength of 515 nm. Relative fluorescence was calculated as green fluorescence normalized to 1 ml culture divided by the optical density (OD600 nm.
# (§2) Initially, the lasB-gfp(ASV) translational fusion (OdDHL sensor) was thoroughly characterized with respect to its sensitivity and specificity. A culture of E. coli hosting the pMHLAS monitor plasmid was diluted and spilt into several subcultures which were then supplemented with AHLs at concentrations ranging from 0 to 1000 nM. […] When the pMHLAS based reporter system was hosted by PAO-JP2. the OdDHL concentration required for half-maximal activation of the lasB-gfp(ASV) fusion was 8 nM (data not shown). In single copy on the chromosome of PAO-JP2, the OdDHL concentration on required for half-maximal activation of lasB expression was approximately 250 nM (FIG. 2b). Green fluorescent cells were visible by epifluorescence microscopy at a minimal OdDHL concentration of 50 nM (FIG. 2c).
# Effect of the furanone in a heterologous background. The direct regulation exerted by the las regulon on lasB expression is well described by numerous studies (Gambello & Iglewski, 1991: Pearson et al., 1994; Pearson et al., 1997). Regulatory complexity is added by the observation that the las quorum sensing circuit itself is subject to global regulators (Albus et al., 1997; Whiteley et al., 2000) and that lasB expression is also controlled by other regulators than LasR (Brumlik & Storey, 1992; Pesci et al., 1999; Schictman et al., 1995). It was, therefore, important to rule out that QSI effect, observed is not caused by furanone interaction with high levels of control. Since there is no AHL-based quorum sensing system present in Escherichia coli (Williams et al., 2000), this bacterium provides an unbiased and well-defined genetic background for studying the direct effects of the furanone on the P. aeruginosa las quorum sensing system. We repeated the above-described experiments using E. coli MT102 as a heterologous host for the reporter system. […] This is likely to be attributed to the increased copy number of the reporter plasmid.
# lasB promotor = details: Gray et al., 1994; cited from earlier work
# elastase = test: Virulence factor production: elastase (proteolytic) activity of PAO-JP2 supernatant; format: cell-based, Pseudomonas aeruginosa
# Protocol: Measurements of virulence factors. PAO-JP2 was grown in LB medium at 37° C. and shaking at 250 rpm to an OD600 nm of 1.0. The culture was divided into seven subcultures, which were added 0, 70, or 1000 nm OdDHL and 0. 3. or 5 μg/ml furanone 58. The cultures were grown for an additional 4 hours at 37° C. The proteolytic activity was measured as described by Ayora & G{overscore (o)}tz (1994). Azocasein (250 μl 2%, Sigma, St. Louis, Mo.) in 50 mM Tris/HCl and steril-filtered (Ø 0.2 μm) supernatant (150 μl) were incubated for 4 h at […] After precipitation of undigested substrate with trichloroacetic acid (1.2 ml 10%) for 15 minutes, followed by 10 minutes centrifugation at 1000 rpm, NaOH (1.4 ml 1 M) were added to the supernatant. The relative protease activity was measured as the absorbance at 440 nm (OD440 nm) of the supernatant divided by the optical density of the culture (OD600 nm ).
# chitinase = test: Virulence factor production: chitinase activity of PAO-JP2 supernatant; format: cell-based, Pseudomonas aeruginosa
# Protocol: The chitinase activity assay was performed as described by the assay manufacturer (Loewe Biochemica, Sauerlach, Germany). Supernatant (560 μl) of cultures prepared as described for the elastase assay was mixed with carboxymethyl-chitin-remazol brilliant violet (200 μl) and sodium phosphate buffer (40 μl, 1 M, pH 7.5). The reaction mixture was incubated for 18 h at 40° C. in a waterbath. The reaction was stopped by addition of HCl (200 μl, 2 N) and kept for 15 min on ice. After centrifugation (10 min at 15000 rpm), the absorbance (OD550 nm) of the supernatant was measured. The relative chitinase activity was calculated as OD550 nm/OD600 nm normalized to 1 ml supernatant.
# [3] = tested on: lasB-gfp(ASV) reporter in P. aeruginosa PAO-JP2 biofilm; test: OdDHL-mediated signalling in PAO-JP2 flowcell biofilm, lasB-gfp(ASV) reporter, CSLM; format: cell-based, Pseudomonas aeruginosa
# Protocol: P. aeruginosa biofilms. Biofilms were grown at 30° C. in three-dimensional flow cells (Christensen et al., 1999) with individual channel dimensions of 0.3×4×40 mm supplied With ABt minimal medium supplemented with 2% LB. The flow system was assembled and prepared as described by Christensen et al. (1999). The substratum consisted of a microscope glass coverslip (Knittel 24×50 mm st1, Knittel Glaser, Braunschweig, Germany). Cultures for inoculation of the flow channels were prepared in the following way: P. aeruginosa strains were streaked on LB plates with the appropriate antibiotics and incubated for 24 h at 37° C. From each plate a single colony was used for inoculation of 10 ml ABt with 10% LB. The cultures were grown at, 30° C. for 18 h before they were diluted to an OD600 nm of 0.1 in sterile 0.9% NaCl and used for inoculation of the flow channels. Medium flow was kept at a constant rate of 3 mL/h, equivalent to a mean flow velocity of 0.7 mm/s, using a Watson-Marlow 205S peristaltic pump (Watson-Marlow, Falmouth, England). Biofilms were grown for 24 hours before being shifted to media containing AHL and furanone.
# Scanning confocal laser microscopy (SCLM). Microscopic inspection and image acquisition were performed an a scanning confocal laser microscope (model TCS4D, Leica Lasertechnik GmbH, Heldelberg, Germany) equipped with a 63×/1.32-0.6 oil objective. The microscope was equipped with a motorized and programmable xy-stage, which was used for monitoring single colonies during the biofilm experiments. At the beginning of each online experiment, the microscope was programmed to track single randomly selected microcolonies; the sensitivity of photo multipliers and the laser intensity were adjusted and thereafter kept constant through out the duration of the experiments. Image scanning was carried out using the 488 nm and 568 nm lines of an Ar/Kr laser for detection of Gfp and Rfp, respectively. Visualization of captured images was performed using the IMARIS software package (Bitplane AG, Zúrich, Switzerland) running on a Silicon Graphics Indigo 2 workstation (Silicon Graphics, Mountain View, Calif. USA).
# Inhibition of AHL-mediated signalling in P. aeruginosa biofilms. The lasB-gfp(ASV) reported was integrated into the chromosome of PAO-JP2 to ensure stable segregation and a constant gene dosage of the reported system. The strain was growth in flowcells for 24 hours in ABt-LB medium and a 10-15 μm thick biofilm developed. The media flow was subsequently switched to ABt-LB medium containing the appropriate AHL and furanone concentrations. The development of green fluorescence was monitored online by CSLM for 8 hours.
# lasB promoter = details: Pearson et al (1995), pKDT17 in PAO-R1; read-out: OdDHL required for half-maximal activation of a similar construct; cited from earlier work
# [4] = tested on: las quorum sensing system (lasB-gfp(ASV) expression); test: AHL and furanone bioassay, PlasB-gfp(ASV) Plac-lasR reporter in planktonic PAO-JP2; format: cell-based, Pseudomonas aeruginosa
# Protocol: as §1, §2
# Noteworthy, the inhibitory effect of furanone 56 was relieved at increased concentrations of OdDHL.
# P. aeruginosa = details: cited from earlier work
smiles,measurement,setting,value
CCCCC1=C(Br)/C(=C/Br)OC1=O [Compound 2],inhibition index (IIX40),[1],0.75 mole of furanone per mmole of
"CCCCCCCC(=O)CC(=O)N[C@H]1CCOC1=O [ODHL, N-[3-oxo-decanoyl]-L-homoserine lactone]",induction of the lasB-gfp(ASV) monitor by AHL compounds,[2],activated lasB-expression albelt at a lower level; also recorded: less efficient
"CCCCCC(=O)CC(=O)N[C@H]1CCOC1=O [OOHL, N-[3-oxo-octanoyl]-L-homoserine lactone]",induction of the lasB-gfp(ASV) monitor by AHL compounds,[2],less efficient
"CCCCCCCCCC(=O)CC(=O)N[C@H]1CCOC1=O [OdDHL, N-[3-oxo-dodecanoyl]-L-homoserine lactone]",induction of the promotor in response to OdDHL addition,lasB promotor,63 fold
same,elastase activity,"elastase; PAO-JP2, 70 nm OdDHL",induced
same,elastase activity in furanone-treated culture,elastase; addition of 1 μM OdDHL,entirely restored
same,chitinase activity,"chitinase; PAO-JP2, 70 nm OdDHL",induced
same,chitinase activity in furanone-treated culture,chitinase; addition of 1 μM OdDHL,entirely restored
same,lowest OdDHL concentration inducing lasB promoter activity in PAO-JP2 biofilms,[3],20 nM
same,expression of the lasB-gfp(ASV) reporter fusion in biofilm,[3]; 40 nm OdDHL,induced and visible in the single cells within four hours
same,pEC50,lasB promoter,6.00
same,induction of the lasB-gfp(ASV) monitor by AHL compounds,[2],most efficient inducer
same,increased responsiveness to OdDHL of the E. coli strain harboring the lasB reporter,[2]; compared with the PAO-JP2 reporter,approx. 10 fold
same,minimal OdDHL concentration at which green fluorescent cells were visible by epifluorescence microscopy,[4]; mini-Tn5 reporter in PAO-JP2,50 nM
same,pEC50,"[4]; pMHLAS based (plasmid) reporter hosted by PAO-JP2, data not shown, read-out: OdDHL concentration required for half-maximal activation of the lasB-gfp(ASV) fusion",8.10
same,pEC50,"[4]; reporter in single copy on the chromosome of PAO-JP2, read-out: OdDHL concentration required for half-maximal activation of lasB expression",~6.60 and 6.60
same,lowest OdDHL concentration detected by the reporter,"[4]; single chromosomal copy, data not shown",20 nM
NC[C@H]1O[C@H](O[C@H]2[C@H](O)[C@@H](O[C@H]3O[C@H](CO)[C@@H](O)[C@H](N)[C@H]3O)[C@H](N)C[C@@H]2N)[C@H](N)C[C@@H]1O [tobramycin],resistance in the biofilm form compared to the planktonic cells,P. aeruginosa,"50,000 times"
